US20240368163A1, “COMPOUNDS AND METHODS FOR MODULATING SPLICING” (REMIX THERAPEUTICS INC., priority 2021, published 2024)
pIC50: −log10 of the molar value.

What was measured:
Assay type in all cases: cell-based, human
SMN2 = test: Splicing RT-qPCR panel, SMN2 canonical junction (CJ) mRNA; settings: Homo sapiens, RT-qPCR panel, canonical junction mRNA; compound concentration having 50% response in CJ decrease; read-out: SMN2 IC50 (decrease in CJ mRNA levels)
Experimental: (§1) Compounds described herein were used to modulate RNA transcript abundance in cells. The expression of a target mRNA was measured by detecting the formation of an exon-exon junction in the canonical transcript (CJ). A compound mediated exon-inclusion event was detected by observing an increase in formation of a new junction with an alternative exon (AJ). Real-time qPCR assays were used to detect these splicing switches and interrogate the potency of various compounds towards different target genes. A high-throughput real time quantitative PCR (RT-qPCR) assay was developed to measure these two isoforms of the mRNA (CJ and AJ) for exemplary genes, such as HTT, SMN2, and MYB, together with a control housekeeping gene, GAPDH or GUSB or PPIA, used for normalization. Briefly, the A673 or K562 cell line was treated with various compounds described herein (e.g., compounds of Formula (I)). After treatment, the levels of the HTT, MYB, or SMN2 mRNA targets were determined from each sample of cell lysate by cDNA synthesis followed by qPCR.
(§2) The A673 cell line was cultured in DMEM with 10% FBS. Cells were diluted with full growth media and plated in a 96-well plate (15,000 cells in 100 ul media per well). The plate was incubated at 37° C. with 5% CO2 for 24 hours to allow cells to adhere. An 11-point 3-fold serial dilution of the compounds was made in DMSO then diluted in media in an intermediate plate. Compounds were transferred from the intermediate plate to the cell plate with the top dose at a final concentration of 10 uM in the well. Final DMSO concentration was kept at or below 0.25%. The cell plate was returned to the incubator at 37° C. with 5% CO2 for an additional 24 hours.
(§3) The K562 cell line was cultured in IMDM with 10% FBS. For K562, cells were diluted with full growth media and plated in either a 96-well plate (50,000 cells in 50 uL media per well) or a 384-well plate (8,000-40,000 cells in 45 uL media per well). An 11-point 3-fold serial dilution of the compounds were made in DMSO then diluted in media in an intermediate plate. Compound was transferred from the intermediate plate to the cell plate with the top dose at a final concentration of 10 uM in the well. Final DMSO concentration was kept at or below 0.25%. Final volume was 100 uL for 96-well plate and 50 uL for 384-well plate. The cell plate was then placed in an incubator at 37° C. with 5% CO2 for 24 hours.
(§4) The cells were then gently washed with 50 uL-100 uL cold PBS before proceeding to addition of lysis buffer. 30 uL-50 μL of room temperature lysis buffer with DNAse I (and optionally RNAsin) was added to each well. Cells were shaken/mixed thoroughly at room temperature for 5-10 minutes for lysis to take place and then 3 uL-5 μL of room temperature stop solution was added and wells were shaken/mixed again. After 2-5 minutes, the cell lysate plate was transferred to ice for RT-qPCR reaction setup. The lysates could also be frozen at −80° C. for later use.
(§5) In some cases, a direct lysis buffer was used. An appropriate volume of 3× lysis buffer (10 mM Tris, 150 mM NaCl, 1.5%-2.5% Igepal and 0.1-1 U/uL RNAsin, pH 7.4) was directly added to either K562 or A673 cells in media and mixed by pipetting 3 times. The plates were then incubated at room temperature with shaking/rocking for 20-50 minutes to allow for lysis to take place. After this time, the cell lysate plate was transferred to ice to set up for the RT-qPCR reactions. The lysates could also be frozen at −80° C. for later use.
(§6) To set up 10 uL RT-qPCR reactions, cell lysates were transferred to 384-well qPCR plates containing the master mix according to the table below. The plates were sealed, gently vortexed, and spun down before the run. The volumes were adjusted accordingly in some instances where the reaction was carried in 20 μL. The table below summarizes the components of the RT-qPCR reactions:
(§7) The RT-qPCR reaction was performed using a QuantStudio (ThermoFisher) under the following fast cycling conditions. […]

HTT [1] = test: HiBiT protein abundance assay, HTT; settings: Homo sapiens, K562, 24 h, Table 13A, modified K562 cells
Outline: (§8)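 K562 cells with endogenous HiBiT-tagged target were treated 24 h at 37 °C with compound (10-point 3-fold dilution, top 10 μM final, DMSO ≤0.25%). Lytic LgBiT luminescence was normalized to unmodified K562 (baseline) and DMSO-treated tagged cells; IC50 interpolated at 50% from four-parameter logistic fit.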

HTT [2] = test: Splicing RT-qPCR assay, HTT mRNA canonical junction (CJ) and alternative junction (AJ); settings: Homo sapiens; for AC50: increase in AJ mRNA
Experimental: as §1, §2, §3, §4, §5, §6, §7

Target C [3] = test: Splicing RT-qPCR panel, Target C canonical junction (CJ) mRNA; settings: Homo sapiens, RT-qPCR panel, canonical junction mRNA; compound concentration having 50% response in CJ decrease; read-out: Target C IC50 (decrease in CJ mRNA levels)
Experimental: as §1, §2, §3, §4, §5, §6, §7

Target C [4] = test: HiBiT protein abundance assay, Target C; settings: Homo sapiens, K562, 24 h, Table 13A, modified K562 cells
Outline: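 HiBiT knock-in K562-derived cells, 10000 cells/well, were treated 24 h at 37 °C with a 10-point 3-fold dilution series (top 10 μM final, DMSO ≤0.25%). Lytic HiBiT luminescence was normalized to unmodified K562 and DMSO controls; IC50 was interpolated at 50% from a four-parameter logistic fit.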

MYB [5] = test: HiBiT protein abundance assay, MYB; settings: Homo sapiens, K562, 24 h, Table 13A, modified K562 cells
Outline: as §8

MYB [6] = test: Splicing RT-qPCR assay, MYB mRNA canonical junction (CJ) and alternative junction (AJ); settings: Homo sapiens; for AC50: increase in AJ mRNA
Outline: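 A673 or K562 cells were treated 24 h at 37 °C with an 11-point 3-fold dilution series (top 10 uM final, DMSO ≤0.25%). Lysates underwent one-step RT-qPCR for canonical (CJ) and alternative (AJ) junctions; Ct normalized to GAPDH, GUSB or PPIA and DMSO control via 2^(−ΔΔCt), expressed as percentage response.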

[7] = 24 h, decrease in CJ mRNA, A673 or K562 cells, 24 hours treatment, RT-qPCR, read-out: HTT CJ IC50
[8] = 24 h, A673 or K562 cells, 24 hours treatment, RT-qPCR
[9] = RT-qPCR panel, canonical junction mRNA, compound concentration having 50% response in CJ decrease, read-out: HTT IC50 (decrease in CJ mRNA levels)
[10] = 24 h, decrease in CJ mRNA, A673 or K562 cells, 24 hours treatment, RT-qPCR, read-out: MYB CJ IC50
[11] = RT-qPCR panel, canonical junction mRNA, compound concentration having 50% response in CJ decrease, read-out: MYB IC50 (decrease in CJ mRNA levels)

Structure (SMILES) | pIC50 (SMN2) | pIC50 (HTT [1]) | pIC50 (HTT [2]; [7]) | AC50 (HTT [2]; [8]) | pIC50 (HTT [2]; [9]) | pIC50 (Target C [3]) | pIC50 (Target C [4]) | pIC50 (MYB [5]) | pIC50 (MYB [6]; [10]) | AC50 (MYB [6]; [8]) | pIC50 (MYB [6]; [11])
CN(c1ccc(-c2ccc(-c3cnn(C)c3)c3scnc23)nn1)C1CC(C)(C)NC(C)(C)C1 [Compound 175] | 5.00 to 6.00 | 5.00 to 6.00 | < 5.00 | 1 to 10 µM | < 5.00 | < 5.00 | 5.00 to 6.00 | 5.00 to 6.00 | < 5.00 | 1 to 10 µM | < 5.00
Cc1[nH]ncc1-c1ccc(-c2ccc(N(C)C3CC(C)(C)NC(C)(C)C3)nn2)c2ncsc12 [Compound 176] | < 5.00 | 5.00 to 6.00 | < 5.00 | > 10 µM | < 5.00 | < 5.00 | 5.00 to 6.00 | 5.00 to 6.00 | < 5.00 | > 10 µM | < 5.00
COc1cc(-c2ccc(-c3ccc(N(C)C4CC(C)(C)NC(C)(C)C4)nn3)c3ncsc23)ccn1 [Compound 177] | 5.00 to 6.00 | 5.00 to 6.00 | < 5.00 | > 10 µM | < 5.00 | < 5.00 | 5.00 to 6.00 | 5.00 to 6.00 | 5.00 to 6.00 | > 10 µM | 5.00 to 6.00
CN(c1ccc(-c2ccc(-c3cnc(=O)[nH]c3)c3scnc23)nn1)C1CC(C)(C)NC(C)(C)C1 [Compound 179] | 6.00 to 7.00 | 6.00 to 7.00 | 6.00 to 7.00 | 0.1 to 1 µM | 6.00 to 7.00 | 6.00 to 7.00 | 6.00 to 7.00 | 6.00 to 7.00 | 6.00 to 7.00 | 0.1 to 1 µM | 6.00 to 7.00
CN(c1ccc(-c2ccc(-c3ccc(=O)[nH]c3)c3scnc23)nn1)C1CC(C)(C)NC(C)(C)C1 [Compound 180] | 6.00 to 7.00 | 6.00 to 7.00 | 6.00 to 7.00 | 0.1 to 1 µM | 6.00 to 7.00 | 6.00 to 7.00 | 6.00 to 7.00 | 6.00 to 7.00 | 6.00 to 7.00 | 0.1 to 1 µM | 6.00 to 7.00
CC1(C)CC(Oc2ccc(-c3ccc(-c4cn[nH]c4)c4ncsc34)nn2)CC(C)(C)N1 [Compound 181] | > 7.00 | > 7.00 | < 5.00 | > 10 µM | < 5.00 | < 5.00 | > 7.00 | > 7.00 | < 5.00 | > 10 µM | < 5.00
c1nc2c(-c3cn[nH]c3)ccc(-c3ccc(N4CCNCC4)nn3)c2s1 [Compound 185] | 6.00 to 7.00 | 5.00 to 6.00 | < 5.00 | 1 to 10 µM | < 5.00 | < 5.00 | 5.00 to 6.00 | 5.00 to 6.00 | 5.00 to 6.00 | > 10 µM | 5.00 to 6.00
c1nc2c(-c3cn[nH]c3)ccc(-c3ccc(N4CC5(CCCNC5)C4)nn3)c2s1 [Compound 187] | 5.00 to 6.00 | 5.00 to 6.00 | < 5.00 | > 10 µM | < 5.00 | < 5.00 | < 5.00 | 5.00 to 6.00 | < 5.00 | > 10 µM | < 5.00
c1nc2c(-c3cn[nH]c3)ccc(-c3ccc(N4CCC5(CC4)CNC5)nn3)c2s1 [Compound 188] | < 5.00 | < 5.00 | < 5.00 | > 10 µM | < 5.00 | < 5.00 | < 5.00 | < 5.00 | < 5.00 | > 10 µM | < 5.00
c1nc2c(-c3cn[nH]c3)ccc(-c3ccc(N4CCCC5(CNC5)C4)nn3)c2s1 [Compound 189] | < 5.00 | < 5.00 | < 5.00 | > 10 µM | < 5.00 | < 5.00 | < 5.00 | < 5.00 | < 5.00 | > 10 µM | < 5.00
c1nc2c(-c3cn[nH]c3)ccc(-c3ccc(N4CCC5(CCNCC5)C4)nn3)c2s1 [Compound 190] | < 5.00 | < 5.00 | < 5.00 | > 10 µM | < 5.00 | < 5.00 | < 5.00 | < 5.00 | < 5.00 | > 10 µM | < 5.00
c1nc2c(-c3cn[nH]c3)ccc(-c3ccc(N4CCC5(CCCNC5)C4)nn3)c2s1 (stereo not drawn) [Compound 191] | 5.00 to 6.00 | 5.00 to 6.00 | < 5.00 | > 10 µM | < 5.00 | < 5.00 | < 5.00 | 5.00 to 6.00 | < 5.00 | > 10 µM | < 5.00
c1nc2c(-c3cn[nH]c3)ccc(-c3ccc(N4CCC5(CCNC5)CC4)nn3)c2s1 [Compound 192] | < 5.00 | < 5.00 | < 5.00 | > 10 µM | < 5.00 | < 5.00 | < 5.00 | < 5.00 | < 5.00 | > 10 µM | < 5.00
c1nc2c(-c3cn[nH]c3)ccc(-c3ccc(N4CCCC5(CCNC5)C4)nn3)c2s1 (stereo not drawn) [Compound 193] | < 5.00 | < 5.00 | < 5.00 | > 10 µM | < 5.00 | < 5.00 | < 5.00 | 5.00 to 6.00 | < 5.00 | > 10 µM | < 5.00
c1nc2c(-c3cn[nH]c3)ccc(-c3ccc(NC4CNC4)nn3)c2s1 [Compound 196] | < 5.00 | < 5.00 | < 5.00 | > 10 µM | < 5.00 | < 5.00 | < 5.00 | < 5.00 | < 5.00 | > 10 µM | < 5.00
